{
  "source": "patent US7687497B2",
  "about": "“C10-substituted camptothecin analogs” (priority 2007, dated 2010)",
  "key": {"A2780/DX5 cells": {"test_system": "A2780/DX5 cells", "test": "Sulforhodamine B (SRB) cytotoxicity assay in A2780/DX5 cells", "assay_type": "cell-based", "details": "for IC50 Ratio: A2780/DX5 versus A2780/WT; for IC50: Homo sapiens, A2780, read-out: A2780/DX5 (nM)", "protocol": "(§1) Each of the testing conditions used in this study in both A2780/WT (wild-type) and A2780/DX5 cells were repeated in five to fifteen experiments that were performed on separate days. Each experiment consisted of one microtiter plate with at least eight individual assays of a given drug treatment condition on the plate. The sulforhodamine B (SRB) assay was used to assess cytotoxicity and absorbance at 570 nm (A570) in order to calculate the percentage of cell control (or percent cell survival) for the various treatment conditions in the plate wells.\nRoswell Park Memorial Institute (RPMI 1640) medium, fetal bovine serum (FBS), and L-glutamine were purchased from Gibco BRL. Drugs were dissolved in sterile dimethylsulfoxide (DMSO), from American Type Culture Collection (ATCC) for stock solutions (2.5 to 5.0 mM). Subsequent dilutions were made using cell culture medium (prior to adding the drug to cells). SRB was purchased from Sigma and dissolved in 1.0% acetic acid. Trichloroacetic acid was purchased from VWR International.\n(§2) Cells were manipulated in a Class IIA/B3 Biological Safety Cabinet (Forma Scientific) and maintained at 37° C. in a humidified atmosphere containing 5% CO2 in a water-jacketed cell culture incubator (Forma Scientific). Cells were counted using a Coulter-Z1 counter (Beckman-Coulter). Following drug treatment, plates were washed using a Biomek 2000 station (Beckman) and, following exposure to SRB dye, plates were washed using an automated plate washer (Model EL404, Bio-Tek Instruments). Percentage of control was correlated to A570 values and determined using a Model EL800 plate reader (Bio-Tek Instruments).\nPopulation doubling times for the two cell lines used in this study encompassed a total of five cell doublings corresponding to approximately 5 days for A2780/WT and A2780/DX5 cells. A2780/WT and A2780/DX5 cells were cultured in RPMI 1640 medium supplemented with 10% fetal bovine serum and 1 mM of L-glutamine. Both cell lines were maintained as monolayered cultures in T-25 or T-75 flasks and then seeded to microtiter plate wells for experiments described herein. Prior to SRB assays, cell viability was monitored by evaluation of microtiter plate wells. […]\nThe sulforhodamine B (SRB) cytotoxicity assay (see, Skehan P, et al., New colorimetric cytotoxicity assay for anticancer-drug screening. J. Natl. Cancer Inst. 82:1107-1112 (1990)) was used to determine the cytotoxic effects of BNP1350, SN-38, topotecan, 9-NH2-CPT, and 9-NO2-CPT on cell growth in vitro. […] Plates were agitated (gently) for 5 minutes and the absorbance values of the SRB dye-protein adduct at a 570 nm wavelength (A570) were determined using an automated microtiter plate reader equipped with an A570 filter (Model EL800, BioTek Instruments)."}, "[1]": {"test_system": "A2780/WT (wild-type) cells", "test": "Sulforhodamine B (SRB) cytotoxicity assay in A2780/WT cells", "assay_type": "cell-based", "details": "Homo sapiens, A2780, read-out: A2780/WT (nM)", "protocol": "as §1\nRoswell Park Memorial Institute (RPMI 1640) medium, fetal bovine serum (FBS), and L-glutamine were purchased from Gibco BRL. […]\nas §2, with “Following drug treatment, plates were washed using a Biomek 2000 station (Beckman) and, following exposure to SRB dye, plates were washed using an automated plate washer (Model EL404, Bio-Tek Instruments).” left out\nPopulation doubling times for the two cell lines used in this study encompassed a total of five cell doublings corresponding to approximately 5 days for A2780/WT and A2780/DX5 cells. […] Prior to SRB assays, cell viability was monitored by evaluation of microtiter plate wells. […]"}, "[2]": {"details": "clinical studies in Japan alone; cited from earlier work"}, "human cancer cell lines": {"test_system": "human cancer cell lines", "test": "In vitro studies on a panel of over 20 human cancer cell lines", "assay_type": "cell-based"}, "[3]": {"test_system": "advanced gastrointestinal cancer", "details": "cited from earlier work"}, "[4]": {"details": "cited from earlier work"}, "[5]": {"test_system": "advanced malignant melanoma", "details": "fifteen patients, 90-360 mg/m^2 repeated every 2 weeks; cited from earlier work"}, "[6]": {"details": "cited from earlier work", "remark": "listed apart in the source"}, "[7]": {"details": "5-day course (27 patients total), 4 wks"}, "[8]": {"details": "5-day course (27 patients total), 8 wks"}, "[9]": {"details": "5-day course (27 patients total), 12 wks"}, "[10]": {"details": "single-dose method (34 patients total), 3 wks"}, "[11]": {"details": "single-dose method (34 patients total), 6 wks"}, "[12]": {"details": "single-dose method (34 patients total), 9 wks"}, "[13]": {"details": "single-dose method (34 patients total), 12 wks"}, "[14]": {"details": "5-day course 15 mg/m^2 × 5, 9 patients treated"}, "[15]": {"details": "5-day course 17 mg/m^2 × 5, 5 patients treated"}, "[16]": {"details": "5-day course 20 mg/m^2 × 5, 10 patients treated"}, "[17]": {"details": "single dose 110 mg/m^2, 2 patients treated"}, "[18]": {"details": "single dose 120 mg/m^2, 7 patients treated"}, "[19]": {"details": "single dose 180 mg/m^2, 9 patients treated"}},
  "note": "Where two headings read alike, the source gives them in different places.",
  "data": [
    {"smiles": "CCOC(=O)COc1ccc2nc3c(c(CC[Si](C)(C)C)c2c1)Cn1c-3cc2c(c1=O)COC(=O)[C@]2(O)CC", "note": "[Compound 9, 7-(2′-Trimethylsilanyl)ethyl-10-(ethoxycarbonylmethoxy) camptothecin]", "values": [
      {"measurement": "IC50 Ratio", "setting": "A2780/DX5 cells", "value": 1.7},
      {"measurement": "IC50", "setting": "A2780/DX5 cells", "value": 123, "unit": "nM"},
      {"measurement": "IC50", "setting": "[1]", "value": 73.9, "unit": "nM"}
    ]},
    {"smiles": "CC[C@@]1(O)C(=O)OCc2c1cc1n(c2=O)Cc2c-1nc1ccc(OC(=O)N3CCOCC3)cc1c2CC[Si](C)(C)C", "note": "[Compound 12, 7-(2′-Trimethylsilanyl)ethyl-10-(4-morpholinecarbonyloxy) camptothecin]", "values": [
      {"measurement": "IC50 Ratio", "setting": "A2780/DX5 cells", "value": 2.1},
      {"measurement": "IC50", "setting": "A2780/DX5 cells", "value": 135, "unit": "nM"},
      {"measurement": "IC50", "setting": "[1]", "value": 65.6, "unit": "nM"}
    ]},
    {"smiles": "CCc1c2c(nc3ccc(OC(=O)N4CCC(N5CCCCC5)CC4)cc13)-c1cc3c(c(=O)n1C2)COC(=O)[C@]3(O)CC", "note": "[CPT-11, 7-ethyl-10-[4-(1-piperidino)-1-piperidino]carbonyloxy camptothecin]", "values": [
      {"measurement": "patient deaths directly attributable to drug toxicity", "setting": "[2]", "value": "approximately 100 patient deaths"}
    ]},
    {"smiles": "CC[C@@]1(O)C(=O)OCc2c1cc1n(c2=O)Cc2c-1nc1ccccc1c2CC[Si](C)(C)C", "note": "[Karenitecin (BNP1350), (4S)-4-ethyl-4-hydroxy-11-[2-(trimethylsilyl)ethyl]-1H-pyrano[3′:4′:6,7]indolizino[1,2-b]quinoline-3,14(4H,12H)-dione]", "values": [
      {"measurement": "antitumor potency compared with Topotecan or SN-38", "setting": "human cancer cell lines", "value": "significantly more potent"}
    ]},
    {"smiles": "CC[C@@]1(O)C(=O)OCc2c1cc1n(c2=O)Cc2cc3ccccc3nc2-1", "note": "[CPT sodium]", "values": [
      {"measurement": "Objective results: Improved", "setting": "[3]; [7]", "value": 1, "unit": "patients"},
      {"measurement": "Objective results: Stable", "setting": "[3]; [7]", "value": 12, "unit": "patients"},
      {"measurement": "Objective results: Worse", "setting": "[3]; [7]", "value": 14, "unit": "patients"},
      {"measurement": "Objective results: Stable", "setting": "[3]; [8]", "value": 7, "unit": "patients"},
      {"measurement": "Objective results: Worse", "setting": "[3]; [8]", "value": 20, "unit": "patients"},
      {"measurement": "Objective results: Stable", "setting": "[3]; [9]", "value": 6, "unit": "patients"},
      {"measurement": "Objective results: Worse", "setting": "[3]; [9]", "value": 21, "unit": "patients"},
      {"measurement": "patients with evidence of partial objective improvement", "setting": "[3]; after 2 months (8 or 9 weeks), of 61 patients", "value": "two"},
      {"measurement": "patients who showed improvement", "setting": "[3]; at 3 months, of 61 patients", "value": "none"},
      {"measurement": "Objective results: Improved", "setting": "[3]; [10]", "value": 4, "unit": "patients"},
      {"measurement": "Objective results: Stable", "setting": "[3]; [10]", "value": 17, "unit": "patients"},
      {"measurement": "Objective results: Worse", "setting": "[3]; [10]", "value": 13, "unit": "patients"},
      {"measurement": "Objective results: Improved", "setting": "[3]; [11]", "value": 2, "unit": "patients"},
      {"measurement": "Objective results: Stable", "setting": "[3]; [11]", "value": 11, "unit": "patients"},
      {"measurement": "Objective results: Worse", "setting": "[3]; [11]", "value": 21, "unit": "patients"},
      {"measurement": "Objective results: Improved", "setting": "[3]; [12]", "value": 2, "unit": "patients"},
      {"measurement": "Objective results: Stable", "setting": "[3]; [12]", "value": 8, "unit": "patients"},
      {"measurement": "Objective results: Worse", "setting": "[3]; [12]", "value": 24, "unit": "patients"},
      {"measurement": "Objective results: Stable", "setting": "[3]; [13]", "value": 6, "unit": "patients"},
      {"measurement": "Objective results: Worse", "setting": "[3]; [13]", "value": 28, "unit": "patients"},
      {"measurement": "No. of patients with cystitis", "setting": "[4]; 5-day course 11 mg/m^2 × 5, 2 patients treated", "value": 1, "unit": "patients"},
      {"measurement": "No. of patients with cystitis", "setting": "[4]; [14]", "value": 4, "unit": "patients"},
      {"measurement": "No. of patients with diarrhea", "setting": "[4]; [14]", "value": 1, "unit": "patients"},
      {"measurement": "No. of patients with cystitis", "setting": "[4]; [15]", "value": 2, "unit": "patients"},
      {"measurement": "No. of patients with diarrhea", "setting": "[4]; [15]", "value": 4, "unit": "patients"},
      {"measurement": "No. of patients with cystitis", "setting": "[4]; [16]", "value": 6, "unit": "patients"},
      {"measurement": "No. of patients with diarrhea", "setting": "[4]; [16]", "value": 4, "unit": "patients"},
      {"measurement": "No. of patients with diarrhea", "setting": "[4]; 5-day course 22 mg/m^2 × 5, 1 patient treated", "value": 1, "unit": "patients"},
      {"measurement": "Cystitis, 5-Day Course (% of 27 Patients)", "setting": "[4]; 5-day course", "value": "48 (P < 0.05) %"},
      {"measurement": "Number of patients with cystitis", "setting": "[4]; single dose 100 mg/m^2, 6 patients treated", "value": 2, "unit": "patients"},
      {"measurement": "Number of patients with cystitis", "setting": "[4]; [17]", "value": 1, "unit": "patients"},
      {"measurement": "Number of patients with diarrhea", "setting": "[4]; [17]", "value": 1, "unit": "patients"},
      {"measurement": "Number of patients with cystitis", "setting": "[4]; [18]", "value": 2, "unit": "patients"},
      {"measurement": "Number of patients with diarrhea", "setting": "[4]; [18]", "value": 4, "unit": "patients"},
      {"measurement": "Number of patients with cystitis", "setting": "[4]; [19]", "value": 3, "unit": "patients"},
      {"measurement": "Number of patients with diarrhea", "setting": "[4]; [19]", "value": 2, "unit": "patients"},
      {"measurement": "Cystitis, Single Dose (% of 34 Patients)", "setting": "[4]; single dose method", "value": 24, "unit": "%"},
      {"measurement": "less pronounced transient tumor regression", "setting": "[5]", "value": "three"},
      {"measurement": "bladder toxicity dose limiting", "setting": "[6]; doses of 20 to 30 mg/m^2", "value": "three"},
      {"measurement": "bladder toxicity, additional patients", "setting": "[6]; doses of 30 and 44 mg/m^2", "value": "two"}
    ]}
  ]
}
